Test results reported in the NIST ThermoML archive (doi:10.1021/je500498m).

Experiment: xn = mol fraction of the nth substance listed
Conditions: for speed of sound: 100 kPa, Sing-around technique in a fixed-path interferometer; for speed of sound / viscosity / mass density: Liquid; for viscosity / mass density: 101 kPa; for viscosity: Falling or rolling sphere viscometry; for mass density: Vibrating tube method; for surface tension liquid-gas: 294.4 K, Pendant drop shape

CCCCCCCCCCCCCCCC [hexadecane] + Cc1ccccc1
Conditions | mass density [kg/m3] | speed of sound [m/s] | viscosity [mPa·s]
293.15 K, x2 = 0 | 773.49 | 1357.3 | 3.44
293.15 K, x2 = 0.1002 | 776.71 | 1352.9 | 3.03
293.15 K, x2 = 0.2 | 780.38 | 1348.1 | 2.64
293.15 K, x2 = 0.3018 | 784.83 | 1343.1 | 2.28
293.15 K, x2 = 0.4001 | 789.87 | 1337.2 | 1.96
293.15 K, x2 = 0.5 | 796.1 | 1332 | 1.66
293.15 K, x2 = 0.6001 | 803.76 | 1326.5 | 1.4
293.15 K, x2 = 0.7005 | 813.44 | 1321.5 | 1.16
293.15 K, x2 = 0.8001 | 825.95 | 1318 | 0.94
293.15 K, x2 = 0.8999 | 842.77 | 1318 | 0.76
303.15 K, x2 = 0 | 766.55 | 1320 | 2.72
303.15 K, x2 = 0.1002 | 769.7 | 1315.5 | 2.42
303.15 K, x2 = 0.2 | 773.29 | 1310.6 | 2.14
303.15 K, x2 = 0.3018 | 777.64 | 1305.5 | 1.87
303.15 K, x2 = 0.4001 | 782.56 | 1299.4 | 1.63
303.15 K, x2 = 0.5 | 788.63 | 1293.9 | 1.4
303.15 K, x2 = 0.6001 | 796.11 | 1288 | 1.19
303.15 K, x2 = 0.7005 | 805.54 | 1282.4 | 1
303.15 K, x2 = 0.8001 | 817.73 | 1278.2 | 0.82
303.15 K, x2 = 0.8999 | 834.11 | 1277 | 0.67
313.15 K, x2 = 0 | 759.63 | 1283.3 | –
313.15 K, x2 = 0.1002 | 762.7 | 1278.7 | –
313.15 K, x2 = 0.2 | 766.2 | 1273.6 | –
313.15 K, x2 = 0.3018 | 770.44 | 1268.4 | –
313.15 K, x2 = 0.4001 | 775.24 | 1262.1 | –
313.15 K, x2 = 0.5 | 781.15 | 1256.2 | –
313.15 K, x2 = 0.6001 | 788.42 | 1250 | –
313.15 K, x2 = 0.7005 | 797.59 | 1243.8 | –
313.15 K, x2 = 0.8001 | 809.46 | 1238.8 | –
313.15 K, x2 = 0.8999 | 825.38 | 1236.4 | –
323.15 K, x2 = 0 | 752.71 | 1247.3 | 1.82
323.15 K, x2 = 0.1002 | 755.7 | 1242.6 | 1.65
323.15 K, x2 = 0.2 | 759.11 | 1237.4 | 1.49
323.15 K, x2 = 0.3018 | 763.23 | 1231.9 | 1.33
323.15 K, x2 = 0.4001 | – | 1225.4 | 1.18
323.15 K, x2 = 0.5 | – | 1219.2 | 1.04
323.15 K, x2 = 0.6001 | – | 1212.5 | 0.9
323.15 K, x2 = 0.7005 | – | 1205.7 | 0.77
323.15 K, x2 = 0.8001 | – | 1199.9 | 0.64
323.15 K, x2 = 0.8999 | – | 1196.3 | 0.52

Conditions | surface tension liquid-gas [mN/m]
x2 = 0 | 27.3
x2 = 0.4001 | 27.3
x2 = 0.5 | 27.5
x2 = 0.6001 | 27.6
x2 = 0.7006 | 27.7
x2 = 0.8001 | 27.8
x2 = 0.8999 | 28
